Test results published in patent publication US12161650B2, “Pharmaceutical compositions comprising a ryanodine receptor modulator and uses thereof” (priority 2021, dated 2024).
Read-outs that look alike come from different tables or passages of the source.

Assay: Phase 1 clinical trial, Part I single ascending doses, plasma pharmacokinetics
Type: in vivo, human (healthy male volunteers)
Conditions: for Tmax / AUC(0-t) / Cmax / AUC / half-life: male, human, plasma; for AUC(0-t) / Cmax: Day 1, geom. mean; for AUC: Day 1, zero to infinity; for AUC / half-life: geom. mean; for half-life: read-out: t1/2, z (converted)
Protocol: A Phase 1, randomized, double-blind, placebo-controlled clinical trial was performed to assess the safety and pharmacokinetics (PK) of Compound I after single, escalating, and repeated oral doses in health male volunteers.
4-[(7-methoxy-2,3-dihydro-1,4-benzothiazepin-4(5H)yl)methyl]benzoic acid hemi-fumarate (Compound I) was administered in a gastro-resistant tablet according to Example 1. The formulation contained 20 mg, 40 mg, or 200 mg Compound I (based on the mass of 4-[(7-methoxy-2,3-dihydro-1,4-benzothiazepin-4(5H)yl)methyl]benzoic acid). Placebo tablet according to Example 4 was used as comparator.
[…] Forty subjects completed part I: 30 active (6 per cohort) and 10 placebo.
In Part I, blood samples were collected from each participant as follows: at pre-dose, then 0.25, 0.5, 1, 1.5, 2, 3, 4, 5, 6, 8, 10, 12, 16, 24, 36, 48, 60, 72, and 96 hours after dosing.
The area under the plasma concentration-time curve was calculated using a combined linear and logarithmic trapezoidal rule. The interpolation was linear in the constant and ascending parts of the plasma concentration-time profiles. The interpolation was logarithmic in the descending parts.
For Part I, to assess the dose effect on the PK of Compound I, the mean AUClast, and Cmax for each dose were calculated and were plotted by dose.
For each group and treatment, descriptive statistics (N, arithmetic mean, standard deviation, minimum, median, maximum, coefficient of variation, geometric mean, and geometric CV, as appropriate) were calculated for the concentrations and pharmacokinetic parameters of Compound I.
Plasma and muscle samples were analyzed by LC-MS/MS method.

- Tmax (single oral administration at 20 to 400 mg, across doses, read-out: median Tmax): 3 to 4.5 h
- AUC(0-t) (single oral dose 40 mg (Treatment A, n = 6)): 68.7 µg·h/mL
- Cmax (single oral dose 40 mg): 3940 ng/mL
- Tmax (single oral dose 40 mg, Day 1, median, read-out: tmax): 3 h
- AUC (single oral dose 40 mg): 71.7 µg·h/mL
- half-life (single oral dose 40 mg): 20.9 h
- AUC(0-t) (single oral dose 80 mg (Treatment B, n = 6)): 153 µg·h/mL
- Cmax (single oral dose 80 mg): 6880 ng/mL
- Tmax (single oral dose 80 mg, Day 1, median, read-out: tmax): 3 h
- AUC (single oral dose 80 mg): 163 µg·h/mL
- half-life (single oral dose 80 mg): 22.7 h
- AUC(0-t) (single oral dose 160 mg (Treatment C, n = 6)): 304 µg·h/mL
- Cmax (single oral dose 160 mg): 15500 ng/mL
- Tmax (single oral dose 160 mg, Day 1, median, read-out: tmax): 3 h
- AUC (single oral dose 160 mg): 312 µg·h/mL
- half-life (single oral dose 160 mg): 17.5 h
- AUC(0-t) (single oral dose 240 mg (Treatment D, n = 6)): 451 µg·h/mL
- Cmax (single oral dose 240 mg): 24500 ng/mL
- Tmax (single oral dose 240 mg, Day 1, median, read-out: tmax): 4.5 h
- AUC (single oral dose 240 mg): 464 µg·h/mL
- half-life (single oral dose 240 mg): 17.7 h
- AUC(0-t) (single oral dose 400 mg (Treatment E, n = 6)): 656 µg·h/mL
- Cmax (single oral dose 400 mg): 35100 ng/mL
- Tmax (single oral dose 400 mg, Day 1, median, read-out: tmax): 3.5 h
- AUC (single oral dose 400 mg): 708 µg·h/mL
- half-life (single oral dose 400 mg): 18.7 h
- Tlag (single oral administration at 20 to 400 mg): less than 2 hours
- Absorption (single oral administration of 20, 40, 80, 160, 240, and 400 mg, after a lag time): rapid absorption was observed
- Dose proportionality with regard to AUClast and Cmax (single oral doses, graphical inspections): dose proportionality
SMILES: COc1ccc2c(c1)CN(Cc1ccc(C(=O)O)cc1)CCS2.O=C(O)/C=C/C(=O)O [Compound I, 4-[(7-methoxy-2,3-dihydro-1,4-benzothiazepin-4(5H)yl)methyl]benzoic acid hemifumarate]
- Non-linearity with the dose (single oral doses): No evidence of non-linearity with the dose was observed
